Laboratory results published in patent publication US11213516B2, “Intravaginally applicable devices comprising antiviral compounds” (AICURIS ANTI-INFECTIVE CURES GMBH, priority 2017, dated 2022).
“And” between values parts separate entries of the source, which are not always exact repeats. Equal values may be shown once. Read-outs that look alike come from different tables or passages of the source. Marks after values point to notes of the source that are not given here.

Test: Plasma concentration after intravaginal administration of vaginal ring
Assay type: in vivo, Cynomolgus monkeys
Procedure: The study was performed in four single dose phases with 28-day sampling period after Phases 1 and 2 (7-day washout period between doses). Vaginal rings were investigated for Pritelivir free base and Pritelivir mesylate salt at two dose levels per formulation. The test items were applied as vaginal ring in Phases 1 and 2 to female monkeys. The study design is below in the Table 3.
Venous blood samples were taken from all animals at the following times in relation to dosing.
• Blood sample site Femoral site • Blood volume 1.0 mL • Anticoagulant For phase 1 samples, Day 1-3 only, blood was sampled into standard HLS vials containing lithium heparin and 20 μL aqueous phosphoric acid (3.5 molar). Thereafter, blood was collected into tubes containing lithium heparin only. Plasma was obtained from all samples by centrifugation. Samples were appropriately labeled and stored deep frozen (−20° C. or below) until analysis • Total no. of blood samples 350 Vaginal Fluid Sampling
After suitable dilution, plasma and vaginal samples were analyzed on UPLC system Waters Acquity UPLC-HSS PFP column with 1.8 μm particles (100×2.1 mm) by gradient elution using 0.1% formic acid and methanol containing 0.1% formic acid. For detection, a time-of-flight mass spectrometer (Xevo GS-2 QTOF, Waters) was used operating in positive ionization mode (MSe analysis). The samples were analyzed for their content of Pritelivir free base.
The study was designed to obtain information on the time-course of unchanged test compound concentrations in plasma and vaginal fluid/tissue, following single intravaginal administration of rings to female Cynomolgus monkeys. Objectives of this study were to determine the safety and tolerance of Pritelivir loaded rings, as well as systemic and local exposure (plasma, vaginal fluid and vaginal and vulval tissue, respectively). Local exposures were compared with in vitro efficacy data of Pritelivir to get an idea on initial pharmacokinetic/pharmacodynamic (PK/PD) parameters for vaginal rings, i.e. to assess the potential ability of a Pritelivir loaded ring to suppress viral replication in the target tissue. Table 9 gives an overview on the EC50 values of Pritelivir on HSV-1 and HSV-2 Data source: Field, H. J., et al., Baseline sensitivity of HSV-1 and HSV-2 clinical isolates and defined acyclovir-resistant strains to the helicase-primase inhibitor pritelivir. Antiviral Res, 2013. 100(2): p. 297-9. EC50=50% effective concentration.

[1] = female, cynomolgus monkey, plasma, other: intravaginal (vaginal ring), 40 mg, ring 40 mg free base, Phase 1 Group 1, group mean, read-out: Plasma concentration of Pritelivir free base, Mean
[2] = female, cynomolgus monkey, plasma, other: intravaginal (vaginal ring), 40 mg, ring 40 mg free base, Phase 1 Group 1, individual animals, read-out: Plasma concentration of Pritelivir free base
[3] = female, cynomolgus monkey, plasma, other: intravaginal (vaginal ring), 240 mg, ring 240 mg free base, Phase 2 Group 1, group mean, read-out: Plasma concentration of Pritelivir free base, Mean
[4] = female, cynomolgus monkey, plasma, other: intravaginal (vaginal ring), 240 mg, ring 240 mg free base, Phase 2 Group 1, individual animals, read-out: Plasma concentration of Pritelivir free base

Cc1nc(N(C)C(=O)Cc2ccc(-c3ccccn3)cc2)sc1S(N)(=O)=O [Pritelivir free base]
All plasma concentrations of Pritelivir (Phases 1 and 2, up to 28 Days, all rings): < 132 nM and < 54 μg/L
concentration at 0.0417 d (female, cynomolgus monkey, plasma, other: intravaginal (vaginal ring), 40 mg, ring 40 mg free base, Phase 1 Group 1, 0.0417 d, group mean, read-out: Plasma concentration of Pritelivir free base, Mean): 3.43 ng/mL
concentration at 0.0417 d (female, cynomolgus monkey, plasma, other: intravaginal (vaginal ring), 40 mg, ring 40 mg free base, Phase 1 Group 1, 0.0417 d, individual animals, read-out: Plasma concentration of Pritelivir free base): 2.44 ng/mL
concentration at 0.167 d [1]: 5.61 ng/mL
concentration at 0.167 d [2]: 2.38 ng/mL
concentration at 0.333 d [1]: 6.4 ng/mL
concentration at 0.333 d [2]: 2.22 ng/mL
concentration at 4 d [1]: 3.86 ng/mL
concentration at 4 d [2]: 3.21 ng/mL
concentration at 7 d [1]: 3.66 ng/mL
concentration at 7 d [2]: 3.55 ng/mL
concentration at 10 d [1]: 3.36 ng/mL
concentration at 10 d [2]: 3.92 ng/mL
concentration at 14 d [1]: 3.31 ng/mL
concentration at 14 d [2]: 2.81 ng/mL
concentration at 17 d [1]: 3.2 ng/mL
concentration at 17 d [2]: 2.64 ng/mL
concentration at 21 d [1]: 2.91 ng/mL
concentration at 21 d [2]: 3 ng/mL
concentration at 24 d [1]: 2.99 ng/mL
concentration at 24 d [2]: 3.21 ng/mL
concentration at 28 d [1]: 2.79 ng/mL
concentration at 28 d [2]: 2.6 ng/mL
concentration at 0.0833 d (female, cynomolgus monkey, plasma, other: intravaginal (vaginal ring), 240 mg, ring 240 mg free base, Phase 2 Group 1, 0.0833 d, group mean, read-out: Plasma concentration of Pritelivir free base, Mean): 3.68 ng/mL
concentration at 0.0833 d (female, cynomolgus monkey, plasma, other: intravaginal (vaginal ring), 240 mg, ring 240 mg free base, Phase 2 Group 1, 0.0833 d, individual animals, read-out: Plasma concentration of Pritelivir free base): 4.41 ng/mL
concentration at 0.167 d [3]: 4.58 ng/mL
concentration at 0.333 d [3]: 5.87 ng/mL
concentration at 3 d (female, cynomolgus monkey, plasma, other: intravaginal (vaginal ring), 240 mg, ring 240 mg free base, Phase 2 Group 1, 3 d, individual animals, read-out: Plasma concentration of Pritelivir free base): 26.8 ng/mL
concentration at 4 d [4]: 26 ng/mL
concentration at 7 d [4]: 16.4 ng/mL
concentration at 10 d [4]: 9.46 ng/mL
concentration at 14 d [4]: 9.48 ng/mL
concentration at 17 d [4]: 10.8 ng/mL
concentration at 21 d [4]: 7.78 ng/mL
concentration at 24 d [4]: 9.71 ng/mL
concentration at 28 d [4]: 12.7 ng/mL
Plasma concentration of Pritelivir free base (ring 40 mg free base, Phase 1 Group 1, 0 d (pre-dose), individual animals): 2.70 ^a μg/L
Plasma concentration of Pritelivir free base (ring 40 mg free base, Phase 1 Group 1, 0.0417 d, individual animals): 4.73 ^ μg/L and 3.11 ^a μg/L
Plasma concentration of Pritelivir free base, Mean (ring 40 mg free base, Phase 1 Group 1, 0.0833 d, group mean): 5.28 ^ μg/L
